From article PMC6375636, “Monotherapy with a low-dose lipopeptide HIV fusion inhibitor maintains long-term viral suppression in rhesus macaques” (PLoS Pathogens, 2019)
Like-named read-outs stand apart in the source and are kept apart here. Peptide text beside a SMILES is read from it. * marks the point of attachment. Palmitoyl = CCCCCCCCCCCCCCCC(=O)*

Legend:
[1] = system: divergent HIV-1 subtypes (pseudoviruses with primary Envs); format: cell-based; details: mean of the 36 pseudoviruses of Table 3; for VRC01 >300000 apparently counted as 300000; read-out: Mean IC50 over divergent HIV-1 subtypes
Protocol: (§1) The inhibitory activities of inhibitors against HIV-1 pseudoviruses and replication-competent isolates were measured as described previously. Briefly, HIV-1 pseudoviruses were generated via the cotransfection of HEK293T cells with an Env-expressing plasmid and a backbone plasmid that encodes Env-defective, luciferase-expressing HIV-1 genome (pSG3Δenv). Viral stocks of replication-competent HIV-1 isolates were generated by transfecting viral molecular clones into HEK293T cells. Culture supernatants were harvested at 48 h posttransfection, and 50% tissue culture infectious doses (TCID50) in TZM-bl cells were determined. Inhibitors were prepared in 3-fold dilutions, mixed with 100 TCID50 of a virus, and then incubated for 1 h at room temperature. The mixture was added to TZM-bl cells (10^4/well), and the cells were incubated for additional 48 h at 37°C. Luciferase activity was measured as described above.

HIV-1 R3A = format: cell-based; details: Table 2, subtype B, R5X4, mean ± SD of 3 assays in triplicate
Protocol: as §1

[2] = system: HIV-1 pseudovirus, primary Env 246_F3_C10_2; format: cell-based; details: Env 246_F3_C10_2, subtype A/C; mean ± SD of 3 assays in triplicate
Protocol: as §1

[3] = system: HIV-1 pseudovirus, primary Env Du156; format: cell-based; details: Env Du156, subtype C; mean ± SD of 3 assays in triplicate
Protocol: as §1

[4] = system: HIV-1 pseudovirus, primary Env AC10.0.29; format: cell-based; details: Env AC10.0.29, subtype B; mean ± SD of 3 assays in triplicate
Protocol: as §1

HIV-1 LAI = format: cell-based; details: Table 2, subtype B, X4, mean ± SD of 3 assays in triplicate
Protocol: as §1

[5] = system: HIV-1 pseudovirus, primary Env CNE55; format: cell-based; details: Env CNE55, subtype A/E; mean ± SD of 3 assays in triplicate
Protocol: as §1

[6] = system: HIV-1 pseudovirus, primary Env 43–22; format: cell-based; details: Env 43–22, subtype B'; mean ± SD of 3 assays in triplicate
Protocol: as §1

[7] = system: replication-competent HIV-1 isolates; format: cell-based; details: mean of the ten isolates of Table 2; read-out: Mean IC50 over the replication-competent isolates
Protocol: as §1

[8] = system: HIV-1 pseudovirus, primary Env CH64.20; format: cell-based; details: Env CH64.20, subtype B/C; mean ± SD of 3 assays in triplicate
Protocol: as §1

HIV-1JRCSF = format: cell-based
Protocol: as §1

[9] = system: HIV-1 pseudovirus, primary Env TRO.11; format: cell-based; details: Env TRO.11, subtype B; mean ± SD of 3 assays in triplicate
Protocol: as §1

[10] = system: HIV-1NL4-3(D36G) pseudovirus; format: cell-based
Protocol: as §1, with “Culture supernatants were harvested at 48 h posttransfection, and 50% tissue culture infectious doses (TCID50) in TZM-bl cells were determined.” left out, “The mixture was added to TZM-bl cells (10^4/well), and the cells were incubated for additional 48 h at 37°C.” left out

[11] = system: NL4-3G36S/V38M pseudovirus; format: cell-based, HIV-1; details: T-20 resistant, mean ± SD of 3 assays in triplicate
Protocol: as §1, with “Culture supernatants were harvested at 48 h posttransfection, and 50% tissue culture infectious doses (TCID50) in TZM-bl cells were determined.” left out, “The mixture was added to TZM-bl cells (10^4/well), and the cells were incubated for additional 48 h at 37°C.” left out

[12] = system: NL4-3I37T/N43K pseudovirus; format: cell-based, HIV-1; details: T-20 resistant, mean ± SD of 3 assays in triplicate
Protocol: as §1, with “Culture supernatants were harvested at 48 h posttransfection, and 50% tissue culture infectious doses (TCID50) in TZM-bl cells were determined.” left out, “The mixture was added to TZM-bl cells (10^4/well), and the cells were incubated for additional 48 h at 37°C.” left out

NL4-3Q40H pseudovirus = format: cell-based, HIV-1; details: T-20 resistant, mean ± SD of 3 assays in triplicate
Protocol: as §1, with “Culture supernatants were harvested at 48 h posttransfection, and 50% tissue culture infectious doses (TCID50) in TZM-bl cells were determined.” left out, “The mixture was added to TZM-bl cells (10^4/well), and the cells were incubated for additional 48 h at 37°C.” left out

NL4-3V38M pseudovirus = format: cell-based, HIV-1; details: T-20 resistant, mean ± SD of 3 assays in triplicate
Protocol: as §1, with “Culture supernatants were harvested at 48 h posttransfection, and 50% tissue culture infectious doses (TCID50) in TZM-bl cells were determined.” left out, “The mixture was added to TZM-bl cells (10^4/well), and the cells were incubated for additional 48 h at 37°C.” left out

NL4-3N43K pseudovirus = format: cell-based, HIV-1; details: T-20 resistant, mean ± SD of 3 assays in triplicate
Protocol: as §1, with “Culture supernatants were harvested at 48 h posttransfection, and 50% tissue culture infectious doses (TCID50) in TZM-bl cells were determined.” left out, “The mixture was added to TZM-bl cells (10^4/well), and the cells were incubated for additional 48 h at 37°C.” left out

NL4-3I37T pseudovirus = format: cell-based, HIV-1; details: T-20 resistant, mean ± SD of 3 assays in triplicate
Protocol: as §1, with “Culture supernatants were harvested at 48 h posttransfection, and 50% tissue culture infectious doses (TCID50) in TZM-bl cells were determined.” left out, “The mixture was added to TZM-bl cells (10^4/well), and the cells were incubated for additional 48 h at 37°C.” left out

NL4-3V38A pseudovirus = format: cell-based, HIV-1; details: T-20 resistant, mean ± SD of 3 assays in triplicate
Protocol: as §1, with “Culture supernatants were harvested at 48 h posttransfection, and 50% tissue culture infectious doses (TCID50) in TZM-bl cells were determined.” left out, “The mixture was added to TZM-bl cells (10^4/well), and the cells were incubated for additional 48 h at 37°C.” left out

[13] = lipopeptide alone, 10 μM in PBS, representative of 2 assays
HIV-1HXB2 Env = biological target: T1, HIV-1HXB2 Env (Human immunodeficiency virus type 1 group M subtype B, UniProt P04578); assay: HIV-1HXB2 Env-mediated cell-cell fusion (HL2/3 effector, TZM-bl target, luciferase reporter); format: cell-based
T1 construct: HL2/3 cells, which stably express high levels of Env, Gag, Tat, Rev, and Nef proteins of the integrated HIV-1 molecular clone HXB2/3gpt; host or cells: HL2/3 cells (effector), cocultured with TZM-bl target cells
Protocol: The inhibitory activities of inhibitors on HIV-1HXB2 Env-mediated cell-cell fusion were determined by a reporter gene assay based on the activation of an HIV LTR-driven luciferase cassette in TZM-bl cells (target) by HIV-1 tat from HL2/3 cells (effector). Briefly, 1 x 10^4/well of TZM-bl cells were plated in 96-well plates and incubated at 37°C overnight. Then, 3 x 10^4/well of HL2/3 cells were cocultured with target cells for 6 h at 37°C in the presence or absence of an inhibitor at graded concentrations. Luciferase activity was measured using luciferase assay reagents and a Luminescence Counter (Promega, Madison, Wisconsin, USA).

[14] = Fig 1, replication-competent virus, mean ± SD of three assays in triplicate, read-out: Anti-HIV activity (IC50, pM) JRCSF infection
[15] = Table 2, JR-CSF, subtype B, R5, mean ± SD of 3 assays in triplicate, read-out: Mean IC50
[16] = Fig 1, NL4-3(D36G) pseudovirus, mean ± SD of three assays in triplicate, read-out: Anti-HIV activity (IC50, pM) NL4-3 entry

T1 sequence (P04578 512-856): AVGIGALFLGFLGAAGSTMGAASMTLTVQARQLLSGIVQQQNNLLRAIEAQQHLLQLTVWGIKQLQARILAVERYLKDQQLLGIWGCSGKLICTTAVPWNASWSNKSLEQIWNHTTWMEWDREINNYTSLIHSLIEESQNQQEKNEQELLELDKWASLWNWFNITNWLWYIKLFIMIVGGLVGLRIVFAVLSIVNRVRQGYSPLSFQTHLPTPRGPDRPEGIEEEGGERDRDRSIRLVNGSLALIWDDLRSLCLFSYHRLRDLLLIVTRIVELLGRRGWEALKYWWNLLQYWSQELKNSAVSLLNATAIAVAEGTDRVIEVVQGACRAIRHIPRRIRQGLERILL

Compound	IC50 [1] [nM]	IC50 (HIV-1 R3A) [nM]	IC50 [2] [nM]	IC50 [3] [nM]	IC50 [4] [nM]	IC50 (HIV-1 LAI) [nM]	IC50 [5] [nM]	IC50 [6] [nM]	IC50 [7] [nM]	IC50 [8] [nM]	IC50 (HIV-1JRCSF; [14]) [pM]	IC50 (HIV-1JRCSF; [15]) [pM]	IC50 [9] [nM]	IC50 [10, 16] [pM]	further results
enfuvirtide [Lipopeptide T-20, reference compound]	30	6.73 ± 1.08	36.2 ± 3.7	15.7 ± 1.58	2.85 ± 0.103	1.16 ± 0.103	25.1 ± 2.33	23.2 ± 0.593	15.3	33.3 ± 1.18	4460 ± 1400	2970 ± 788	7.05 ± 1.33	8560 ± 1050	IC50 ([10]; Table 4, NL4-3D36G, T-20 sensitive, mean ± SD of 3 assays in triplicate, value in parentheses behind the bound, read-out: IC50): 8770 ± 1020 pM; IC50 [11]: 317.3 ± 1.65 nM; IC50 [12]: 6950 ± 1140 nM; IC50 (NL4-3Q40H pseudovirus): 1150 ± 88 nM; IC50 (NL4-3V38M pseudovirus): 1050 ± 74.8 nM; IC50 (NL4-3N43K pseudovirus): 748 ± 41.9 nM; IC50 (NL4-3I37T pseudovirus): 1220 ± 120 nM; IC50 (NL4-3V38A pseudovirus): 2240 ± 33.1 nM
CCCCCCCCCCCCCCCC(=O)NCCCC[C@H](NC(=O)[C@H](CCC(=O)O)NC(=O)[C@H](CC(C)C)NC(=O)[C@H](CCCCN)NC(=O)[C@H](CCCCN)NC(=O)[C@H](CC(C)C)NC(=O)[C@H](CCC(=O)O)NC(=O)[C@H](CCC(=O)O)NC(=O)[C@H](CCC(=O)O)NC(=O)[C@H](CC(N)=O)NC(=O)[C@H](CCCCN)NC(=O)[C@H](CCCCN)NC(=O)[C@H](CCC(N)=O)NC(=O)[C@H](CCC(N)=O)NC(=O)[C@H](CCC(=O)O)NC(=O)[C@H](CCC(=O)O)NC(=O)[C@H](C)NC(=O)[C@H](CCCCN)NC(=O)[C@H](CCCCN)NC(=O)[C@H](CC(C)C)NC(=O)[C@H](CC(C)C)NC(=O)[C@H](CCC(=O)O)NC(=O)[C@H](CCC(=O)O)NC(=O)[C@@H](NC(=O)[C@H](CCCCN)NC(=O)[C@H](CCC(N)=O)NC(=O)[C@H](CCC(=O)O)NC(=O)[C@H](Cc1c[nH]c2ccccc12)NC(C)=O)[C@@H](C)CC)C(N)=O [LP-52, reference compound] (Ac-WEQKIEELLKKAEEQQKKNEEELKKLEK(Palmitoyl)-NH2)	0.017	0.0136 ± 0.00199	0.0175 ± 0.00191	0.00466 ± 0.00075	0.00971 ± 0.00081	0.0122 ± 0.00093	0.0173 ± 0.00141	0.00783 ± 0.00074	0.0169	0.00971 ± 0.00084	7.47 ± 1.9	8.02 ± 3.59	0.0206 ± 0.00267	6.12 ± 0.25	[θ]222 ([13]; room temperature): -14952 degree.cm^2.dmol^-1; Helix content (%) ([13]; [θ]222 / -33,000): 45%; Tm (°C) ([13]; ellipticity at 222 nm, 20-98°C, 2°C/min): 56 °C; IC50 (HIV-1HXB2 Env): 0.0187 ± 0.00301 nM
